The text below walks through data of ChEMBL document CHEMBL3822387 (Bioorg Med Chem, 2016).

For data set [1], the target named is Acetylcholinesterase (Electrophorus electricus, UniProt O42275).
Description: Inhibition of electric eel ACHE preincubated for 6 mins followed by addition of acetylcholine iodide as substrate by Ellman's method
Data set [2] deals with Cholinesterase (Equus caballus, UniProt P81908).
Description: Inhibition of equine BCHE preincubated for 6 mins followed by addition of S-butyrylcholine iodide as substrate by Ellman's method
Data set [3] concerns the target T1, Acetylcholinesterase (Homo sapiens, UniProt P22303).
Description: Inhibition of human erythrocyte ACHE preincubated for 6 mins followed by addition of acetylcholine iodide as substrate by Ellman's method
In data set [4] the target is T2, Cholinesterase (Homo sapiens, UniProt P06276).
Description: Inhibition of human serum BCHE preincubated for 6 mins followed by addition of S-butyrylcholine iodide as substrate by Ellman's method
Data set [5] is described as follows: Cytotoxicity against rat PC12 cells assessed as reduction in cell viability at 1 to 50 uM measured after 24 hrs by MTT assay. It counts as cell-based. To be noted: pc-12, 24 h.
Data set [6] deals with PC-12. Kind of data set: Neuroprotective activity against H2O2-induced damage in rat PC12 cells assessed as cell viability at 1 to 10 uM preincubated for 2 hrs followed by H2O2 addition for 24 hrs by MTT assay. It counts as functional, cell-based.
A short description of another data set: in vitro. Particulars: PAMPA.
Data set [7] deals with PC-12. Kind of data set: Neuroprotective activity against H2O2-induced damage in rat PC12 cells assessed as cell viability at 10 uM preincubated for 2 hrs followed by H2O2 addition for 24 hrs by MTT assay. It counts as functional, cell-based.
The target in data set [8] is T1, Acetylcholinesterase. The data set is described as follows: Mixed-type inhibition of ACHE (unknown origin) using acetylcholine iodide as substrate by Line weaver-Burk reciprocal plot analysis.
In data set [9] the target is T2, Cholinesterase. Kind of data set: Competitive inhibition of BCHE (unknown origin) using […] as substrate by Line weaver-Burk reciprocal plot analysis.
Data set [10] in a line: Metal chelating activity of the compound assessed as compound-Cu2+ complex formation by measuring bathochromic shift by UV-vis spectroscopy. In kind it is physicochemical.
A short description of data set [11]: Metal chelating activity of the compound assessed as compound-Fe2+ complex formation by measuring maximum absorption wavelength range by UV-vis spectroscopy (reference value: 212 nm). It counts as physicochemical.
Data set [12] is described as follows: Metal chelating activity of the compound assessed as compound-Fe3+ complex formation by UV-vis spectroscopy by measuring maximum absorption wavelength range by UV-vis spectroscopy (reference value: 212 nm). In kind it is physicochemical.
Data set [13] can be described thus: Metal chelating activity of the compound assessed as compound-Zn2+ complex formation by UV-vis spectroscopy by measuring maximum absorption wavelength range by UV-vis spectroscopy (reference value: 212 nm). In kind it is physicochemical.

pIC50: −log10 of the molar value. Calls of active or inactive are those of the source. No cut-off for these calls is given here.

T1 sequence (P22303 whole entry): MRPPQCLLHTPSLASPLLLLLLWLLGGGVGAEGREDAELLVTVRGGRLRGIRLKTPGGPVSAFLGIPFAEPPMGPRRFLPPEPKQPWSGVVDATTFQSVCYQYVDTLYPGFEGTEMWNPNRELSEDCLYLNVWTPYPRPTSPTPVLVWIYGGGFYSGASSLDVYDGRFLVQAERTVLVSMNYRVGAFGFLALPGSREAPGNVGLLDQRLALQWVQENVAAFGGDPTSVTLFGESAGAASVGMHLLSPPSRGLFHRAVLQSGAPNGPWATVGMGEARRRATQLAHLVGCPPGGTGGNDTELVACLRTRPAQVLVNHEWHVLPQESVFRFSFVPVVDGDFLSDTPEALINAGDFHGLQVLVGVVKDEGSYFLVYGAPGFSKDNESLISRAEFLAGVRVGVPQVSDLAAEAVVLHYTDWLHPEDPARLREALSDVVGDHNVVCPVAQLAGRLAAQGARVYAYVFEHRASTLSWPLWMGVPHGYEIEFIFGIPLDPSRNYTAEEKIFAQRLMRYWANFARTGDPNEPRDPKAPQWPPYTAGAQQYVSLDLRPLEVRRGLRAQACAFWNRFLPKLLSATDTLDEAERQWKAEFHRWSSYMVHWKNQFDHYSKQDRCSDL
T2 sequence (P06276 whole entry): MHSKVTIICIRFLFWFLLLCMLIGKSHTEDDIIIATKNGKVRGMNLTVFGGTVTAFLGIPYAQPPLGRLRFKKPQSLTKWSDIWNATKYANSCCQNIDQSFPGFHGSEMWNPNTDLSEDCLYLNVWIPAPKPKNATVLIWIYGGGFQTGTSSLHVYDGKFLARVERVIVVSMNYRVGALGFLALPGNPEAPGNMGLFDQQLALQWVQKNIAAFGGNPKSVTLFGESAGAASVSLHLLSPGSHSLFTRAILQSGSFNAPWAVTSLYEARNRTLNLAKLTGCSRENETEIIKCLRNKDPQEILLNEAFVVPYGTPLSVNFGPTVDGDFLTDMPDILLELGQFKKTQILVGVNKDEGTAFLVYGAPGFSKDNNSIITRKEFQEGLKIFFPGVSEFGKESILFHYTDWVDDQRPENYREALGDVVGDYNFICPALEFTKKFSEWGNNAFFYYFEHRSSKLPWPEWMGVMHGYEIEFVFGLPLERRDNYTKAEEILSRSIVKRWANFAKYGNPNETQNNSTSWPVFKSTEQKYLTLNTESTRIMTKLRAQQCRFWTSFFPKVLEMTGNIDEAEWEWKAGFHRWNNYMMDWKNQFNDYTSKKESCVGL
Sequence of Cholinesterase (Equus caballus, UniProt P81908) (P81908 whole entry): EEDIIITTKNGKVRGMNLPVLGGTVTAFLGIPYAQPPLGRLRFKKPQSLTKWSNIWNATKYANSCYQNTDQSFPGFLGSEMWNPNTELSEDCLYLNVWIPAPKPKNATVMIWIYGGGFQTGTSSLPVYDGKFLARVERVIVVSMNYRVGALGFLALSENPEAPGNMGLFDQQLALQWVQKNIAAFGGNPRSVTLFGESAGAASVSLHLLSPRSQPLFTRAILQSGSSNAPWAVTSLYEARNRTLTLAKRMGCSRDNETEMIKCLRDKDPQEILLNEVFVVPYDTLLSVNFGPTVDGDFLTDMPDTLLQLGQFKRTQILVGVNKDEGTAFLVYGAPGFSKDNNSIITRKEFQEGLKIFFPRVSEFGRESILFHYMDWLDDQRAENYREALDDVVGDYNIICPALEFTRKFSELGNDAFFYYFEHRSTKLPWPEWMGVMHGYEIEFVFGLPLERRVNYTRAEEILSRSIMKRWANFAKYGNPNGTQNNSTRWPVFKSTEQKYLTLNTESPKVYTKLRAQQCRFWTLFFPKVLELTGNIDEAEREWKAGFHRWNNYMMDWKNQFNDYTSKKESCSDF
Sequence of Acetylcholinesterase (Electrophorus electricus, UniProt O42275) (O42275 whole entry): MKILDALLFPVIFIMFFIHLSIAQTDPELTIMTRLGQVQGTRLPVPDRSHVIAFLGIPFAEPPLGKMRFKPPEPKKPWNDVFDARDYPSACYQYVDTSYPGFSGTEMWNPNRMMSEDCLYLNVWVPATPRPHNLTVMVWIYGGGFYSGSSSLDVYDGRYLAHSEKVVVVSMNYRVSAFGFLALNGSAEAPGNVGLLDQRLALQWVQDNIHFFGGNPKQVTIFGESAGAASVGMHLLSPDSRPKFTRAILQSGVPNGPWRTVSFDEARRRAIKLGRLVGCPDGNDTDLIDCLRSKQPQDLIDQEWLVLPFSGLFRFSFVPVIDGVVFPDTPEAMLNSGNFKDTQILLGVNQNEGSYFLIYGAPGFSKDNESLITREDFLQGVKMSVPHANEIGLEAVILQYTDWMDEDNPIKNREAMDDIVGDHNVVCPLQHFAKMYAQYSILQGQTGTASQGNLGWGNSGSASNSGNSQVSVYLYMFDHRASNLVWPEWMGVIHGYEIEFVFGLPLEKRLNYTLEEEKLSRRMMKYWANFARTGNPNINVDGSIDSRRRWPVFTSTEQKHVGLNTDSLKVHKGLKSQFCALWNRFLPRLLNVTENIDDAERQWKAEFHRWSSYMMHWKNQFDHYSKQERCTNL

`COc1ccc2[nH]cc(CCNC(=O)CC3CCN(Cc4cccc(C)c4)CC3)c2c1`: the negative logarithm of the IC50 (pIC50) is 5.02 at Acetylcholinesterase [1], 5.36 at Cholinesterase [2], 4.87 on Acetylcholinesterase [3] and 5.85 against Cholinesterase [4].

For `O=C(CC1CCN(Cc2cccc(Cl)c2)CC1)NCCc1c[nH]c2ccccc12`, the negative logarithm of the IC50 (pIC50) against Acetylcholinesterase [1] was 5.79; at Cholinesterase [2], 6.02.

For `COc1ccc2[nH]cc(CCNC(=O)CC3CCN(Cc4ccccc4C)CC3)c2c1`, the Activity result in data set [5] is reported as “Non-toxic”. In the data set on PC-12 [6], the result was Active. The pIC50 on Acetylcholinesterase [1] was 5.66; on Cholinesterase [2] it was 5.89; against Acetylcholinesterase [3], 5.44; on Cholinesterase [4] it was 5.99. In the data set “in vitro”, the Papp at 50 ug/ml came out at 10.9 ×10⁻⁶ cm/s.

Turning to `O=C(NCCc1c[nH]c2ccccc12)C1CCN(Cc2ccccc2[N+](=O)[O-])CC1`, the pIC50 is 4.50 at Acetylcholinesterase [1] and 4.97 against Cholinesterase [2].

Regarding `O=C(CC1CCN(Cc2ccccc2)CC1)NCCc1c[nH]c2ccccc12`, the negative-log IC50 (pIC50) against Acetylcholinesterase [1] is 5.68; against Cholinesterase [2], 5.96; against Acetylcholinesterase [3], 5.42; against Cholinesterase [4], 6.02. The compound further yielded a Papp at 50 ug/ml in the data set “in vitro” of 7.4 ×10⁻⁶ cm/s.

Consider `COc1ccc2[nH]cc(CCNC(=O)CC3CCN(Cc4ccc(C)cc4)CC3)c2c1`, for which the pIC50 against Acetylcholinesterase [1] was 5.28; on Cholinesterase [2] it was 5.83; on Acetylcholinesterase [3], 5.03; against Cholinesterase [4], 5.97.

For `O=C(NCCc1c[nH]c2ccccc12)C1CCN(Cc2ccccc2)CC1`, the pIC50 on Acetylcholinesterase [1] is 5.26; against Cholinesterase [2], 5.48; against Acetylcholinesterase [3], 5.11; at Cholinesterase [4] it was 5.70.

Consider `COc1ccc2[nH]cc(CCNC(=O)CC3CCN(Cc4ccccc4Cl)CC3)c2c1`, for which the negative logarithm of the IC50 (pIC50) was 4.77 at Acetylcholinesterase [1] and 5.89 against Cholinesterase [2].

On to `COc1ccc2[nH]cc(CCNC(=O)CC3CCN(Cc4ccc(Cl)cc4)CC3)c2c1`, for which the pIC50 on Acetylcholinesterase [1] was 4.69; on Cholinesterase [2], 5.19.

Regarding `O=C(CC1CCN(Cc2ccccc2Cl)CC1)NCCc1c[nH]c2ccccc12`, the negative-log IC50 (pIC50) on Acetylcholinesterase [1] was 4.55; against Cholinesterase [2], 5.83.

Consider `COc1ccc2[nH]cc(CCNC(=O)C3CCN(Cc4ccccc4C)CC3)c2c1`, for which, in [5], the Activity result is listed as “Non-toxic”. The outcome with PC-12 [6] was Active. Besides, the pIC50 against Acetylcholinesterase [1] is 5.35; against Cholinesterase [2] it was 5.49; at Acetylcholinesterase [3], 5.13; on Cholinesterase [4] it was 5.52. This compound also registered an apparent permeability coefficient (Papp) at 50 ug/ml in the data set “in vitro” of 9.37 ×10⁻⁶ cm/s.

For `COc1ccc2[nH]cc(CCNC(C)=O)c2c1`, the outcome in the data set with PC-12 [7] was Active.

In the case of `Cc1ccccc1CN1CCC(CC(=O)NCCc2c[nH]c3ccccc23)CC1`, the Activity result in data set [5] is reported as “Non-toxic”. In addition, the result in the data set with PC-12 [6] was Active. Moreover, the negative-log IC50 (pIC50) on Acetylcholinesterase [1] was 6.03; on Cholinesterase [2] it was 5.83; at Acetylcholinesterase [3], 5.81; on Cholinesterase [4], 5.85. This compound also came in with a Papp at 50 ug/ml in “in vitro” of 6.91 ×10⁻⁶ cm/s.

`O=C(CC1CCN(Cc2ccc(Cl)cc2)CC1)NCCc1c[nH]c2ccccc12`: the pIC50 against Acetylcholinesterase [1] is 4.65; at Cholinesterase [2], 5.28.

For the compound `Cc1ccccc1CN1CCC(C(=O)NCCc2c[nH]c3ccccc23)CC1`, in data set [5], the Activity result is “Non-toxic”. For the same compound, the result with PC-12 [6] was Active. For the same compound, the pIC50 was 5.65 against Acetylcholinesterase [1], 5.82 at Cholinesterase [2], 5.45 against Acetylcholinesterase [3] and 6.40 on Cholinesterase [4]. This compound had an apparent permeability coefficient (Papp) at 50 ug/ml in “in vitro” of 8.9 ×10⁻⁶ cm/s.

In the case of `COc1ccc2[nH]cc(CCNC(=O)C3CCN(Cc4ccccc4[N+](=O)[O-])CC3)c2c1`, the figures for the pIC50 on Acetylcholinesterase [1] and against Cholinesterase [2] were 4.27 and 4.55, respectively.

On to `COc1ccc2[nH]cc(CCNC(=O)CC3CCN(Cc4cccc(Cl)c4)CC3)c2c1`, for which the pIC50 against Acetylcholinesterase [1] is 5.02; against Cholinesterase [2] it was 5.36.

Take `Cc1cccc(CN2CCC(CC(=O)NCCc3c[nH]c4ccccc34)CC2)c1`: the negative-log IC50 (pIC50) against Acetylcholinesterase [1] was 5.79; against Cholinesterase [2], 6.02; at Acetylcholinesterase [3] it was 5.33; against Cholinesterase [4], 6.07.

Regarding `Cc1ccc(CN2CCC(CC(=O)NCCc3c[nH]c4ccccc34)CC2)cc1`, the pIC50 against Acetylcholinesterase [1] was 5.71; against Cholinesterase [2], 5.89; on Acetylcholinesterase [3], 5.31; against Cholinesterase [4] it was 6.54.

On to `COc1ccc2[nH]cc(CCNC(=O)C3CCN(Cc4ccccc4)CC3)c2c1`, for which the pIC50 is 5.03 against Acetylcholinesterase [1], 5.09 against Cholinesterase [2], 4.91 against Acetylcholinesterase [3] and 5.66 on Cholinesterase [4].

As to `CC(=O)[C@H]1CC[C@H]2[C@@H]3CCC4=CC(=O)CC[C@]4(C)[C@H]3CC[C@]12C` [PROGESTERONE], the Papp at 50 ug/ml in the data set “in vitro” was found to be 5.62 ×10⁻⁶ cm/s.

On to `O=C(CCc1c[nH]c2ccccc12)NCCC1CCN(Cc2ccccc2)CC1`, for which the inhibition result at Acetylcholinesterase [8] and on Cholinesterase [9] was “Active” each time. For the same compound, the Activity in [10] was 219 nm; in [11], 216 nm; in [12] it was 216 nm; in [13] it was 214 nm; in [5], “Non-toxic”. Further, the outcome in the data set on PC-12 [6] was Active. Moreover, the negative-log IC50 (pIC50) is 6.71 against Acetylcholinesterase [1], 7.14 against Cholinesterase [2], 6.56 against Acetylcholinesterase [3] and 7.25 on Cholinesterase [4]. Moreover, the Papp at 50 ug/ml in the data set “in vitro” is 6.98 ×10⁻⁶ cm/s.

On to `Cc1c(C)c2c(c(C)c1O)CCC(C)(C(=O)O)O2` (centres undefined), for which the result with PC-12 [7] was Active.

As to `O=C(CCc1c[nH]c2ccccc12)NC1CCN(Cc2ccccc2)CC1`, the Activity entry in data set [5] was “Non-toxic”. Moreover, the pIC50 against Acetylcholinesterase [1] was 5.24; against Cholinesterase [2], 6.43; against Acetylcholinesterase [3] it was 5.08; against Cholinesterase [4], 6.92.
